Results from patent US8987193B2, “Nisin derivatives and the use thereof” (University College Cork—National University of Ireland, Cork, priority 2008, dated 2015).
“Also recorded” adds a separate entry of the source. Ends that are not written are not given here.

Legend:
[1] = test system: L. lactis CBC8; assay: Deferred antagonism assay; format: cell-based; set-up: key: + = Enhanced bioactivity relative to control; − = Bioactivity equal to or less than control; NA = no activity evident; conditions: producing strain
Method in brief: (§1)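 Well-diffusion testing of purified nisin variants in 0.005% acetic acid, serially diluted, 37° C overnight; AU/ml = reciprocal of last dilution with definite zone × 20. Deferred antagonism: overnight GM17 colonies overlaid with seeded soft agar (0.75%); zone = clearing diameter minus 5 mm.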

[2] = test system: L. lactis CBC7; assay: Deferred antagonism assay; format: cell-based; set-up: key: + = Enhanced bioactivity relative to control; − = Bioactivity equal to or less than control; NA = no activity evident; conditions: producing strain
Method in brief: as §1

[3] = test system: S. aureus CBC4; assay: Deferred antagonism assay; format: cell-based; set-up: key: + = Enhanced bioactivity relative to control; − = Bioactivity equal to or less than control; NA = no activity evident; conditions: producing strain
Method in brief: as §1

[4] = test system: L. plantarum CBC6; assay: Deferred antagonism assay; format: cell-based, Lactobacillus plantarum; set-up: key: + = Enhanced bioactivity relative to control; − = Bioactivity equal to or less than control; NA = no activity evident; conditions: producing strain
Method in brief: as §1

[5] = test system: Strep. agalactiae ATCC13813; assay: Deferred antagonism assay; format: cell-based; conditions: producing strain, diameter of zone minus 5 mm, average of duplicates
[6] = test system: Staph. aureus DPC5245; assay: Deferred antagonism assay; format: cell-based; conditions: producing strain; diameter of zone minus 5 mm; average of duplicates; St. aureus DPC5245
Method in brief: (§2)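 Producer strains replicated on GM17 agar, grown overnight, then overlaid with soft agar (0.75% w/v) seeded with indicator strain. Zone size = clearing diameter minus 5 mm growth diameter, relative to NZ9800 pCI372nisA control; mean of duplicates.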

[7] = test system: Staph. aureus ST528 (MRSA); assay: Deferred antagonism assay; format: cell-based; conditions: producing strain, diameter of zone minus diameter of bacterial growth (5 mm), average of duplicates
Method in brief: as §2

[8] = test system: indicator strains; assay: Deferred antagonism assays, various indicator strains (summary); format: cell-based; conditions: for Strain(s) against which the derivative (producing strain) displays enhanced bioactivity: relative to nisin A-producing control, value = strains listed; for bioactivity of the producing strain, in words: in general / against the strains tested
Method in brief: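 Producer strains were replicated on GM17 or GM17 x-gal agar, grown overnight, then overlaid with GM17, BHI, TS or MH soft agar (0.75% w/v) seeded with the indicator strain. Zone size was taken as the clearing diameter minus the diameter of bacterial growth (5 mm).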

[9] = test system: L. monocytogenes CBC2; assay: Deferred antagonism assay; format: cell-based, Listeria monocytogenes; set-up: key: + = Enhanced bioactivity relative to control; − = Bioactivity equal to or less than control; NA = no activity evident; conditions: producing strain; L. mono CBC2
Method in brief: as §1

[10] = test system: L. monocytogenes CBC3; assay: Deferred antagonism assay; format: cell-based, Listeria monocytogenes; set-up: key: + = Enhanced bioactivity relative to control; − = Bioactivity equal to or less than control; NA = no activity evident; conditions: producing strain; L. mono CBC3
Method in brief: as §1

[11] = test system: L. monocytogenes CBC1; assay: Deferred antagonism assay; format: cell-based, Listeria monocytogenes; set-up: key: + = Enhanced bioactivity relative to control; − = Bioactivity equal to or less than control; NA = no activity evident; conditions: producing strain; L. mono CBC1
Method in brief: as §1

[12] = test system: C. sporogenes CBC5; assay: Deferred antagonism assay; format: cell-based, Clostridium sporogenes; set-up: key: + = Enhanced bioactivity relative to control; − = Bioactivity equal to or less than control; NA = no activity evident; conditions: producing strain

Substance: NisinA N20H (ITSISLCTPGCKTGALMGCHMKTATCHCSIHVSK; not fully specified; also: lantibiotic nisin: dehydrated residues and thioether rings not placed; UniProt P13068 24-57, looked up, variant N20H) [nisin A derivative, hinge substitution N20H]
- Bioactivity relative to control [1]: −
- Bioactivity relative to control [2]: −
- Bioactivity relative to control [3]: +
- Bioactivity relative to control [4]: −
- zone size relative to that of the NZ9800 pCI372nisA control [5]: 59.5%
- zone size relative to that of the NZ9800 pCI372nisA control [6]: 95%
- zone size relative to that of the NZ9800 pCI372nisA control [7]: 74.5%
- Strain(s) against which the derivative (producing strain) displays enhanced bioactivity [8]: L. monocytogenes CBC3, S. aureus CBC4 and C. sporogenes CBC5
- Bioactivity relative to control [9]: −
- Bioactivity relative to control [10]: +
- Bioactivity relative to control [11]: −
- Bioactivity relative to control [12]: +

Substance: K22D: nisin A derivative, hinge substitution K22D; peptide not detected by CMS (ITSISLCTPGCKTGALMGCNMDTATCHCSIHVSK; cysteine pairing not given here; also: lantibiotic nisin-A; UniProt P13068 24-57, looked up, variant K22D)
- Bioactivity relative to control [1]: −
- Bioactivity relative to control [2]: −
- Bioactivity relative to control [3]: −
- Bioactivity relative to control [4]: −
- zone size relative to that of the NZ9800 pCI372nisA control [5]: 0%
- zone size relative to that of the NZ9800 pCI372nisA control [6]: 0%
- zone size relative to that of the NZ9800 pCI372nisA control [7]: 0%
- bioactivity of the producing strain, in words [8]: devoid of bioactivity
- Bioactivity relative to control [9]: −
- Bioactivity relative to control [10]: −
- Bioactivity relative to control [11]: −
- Bioactivity relative to control [12]: −

Substance: NisinA K22Q (ITSISLCTPGCKTGALMGCNMQTATCHCSIHVSK; not fully specified; also: lantibiotic nisin: dehydrated residues and thioether rings not placed; UniProt P13068 24-57, looked up, variant K22Q) [nisin A derivative, hinge substitution K22Q]
- Bioactivity relative to control [1]: +
- Bioactivity relative to control [2]: −
- Bioactivity relative to control [3]: −
- Bioactivity relative to control [4]: −
- zone size relative to that of the NZ9800 pCI372nisA control [5]: 82%
- zone size relative to that of the NZ9800 pCI372nisA control [6]: 77%
- zone size relative to that of the NZ9800 pCI372nisA control [7]: 82%
- bioactivity of the producing strain, in words [8]: slightly diminished bioactivity
- Strain(s) against which the derivative (producing strain) displays enhanced bioactivity [8]: L. lactis CBC8
- Bioactivity relative to control [9]: −
- Bioactivity relative to control [10]: −
- Bioactivity relative to control [11]: −
- Bioactivity relative to control [12]: −

Substance: NisinA K22V
- Bioactivity relative to control [1]: +
- Bioactivity relative to control [2]: −
- Bioactivity relative to control [3]: −
- Bioactivity relative to control [4]: −
- zone size relative to that of the NZ9800 pCI372nisA control [5]: 126%
- zone size relative to that of the NZ9800 pCI372nisA control [6]: 113%
- zone size relative to that of the NZ9800 pCI372nisA control [7]: 107%
- Strain(s) against which the derivative (producing strain) displays enhanced bioactivity [8]: L. monocytogenes CBC2 and L. lactis CBC8
- Bioactivity relative to control [9]: +
- Bioactivity relative to control [10]: −
- Bioactivity relative to control [11]: −
- Bioactivity relative to control [12]: −

Substance: NisinA M21A (ITSISLCTPGCKTGALMGCNAKTATCHCSIHVSK; not fully specified; also: lantibiotic nisin: dehydrated residues and thioether rings not placed; UniProt P13068 24-57, looked up, variant M21A) [nisin A derivative, hinge substitution M21A]
- Bioactivity relative to control [1]: +
- Bioactivity relative to control [2]: +
- Bioactivity relative to control [3]: −
- Bioactivity relative to control [4]: −
- zone size relative to that of the NZ9800 pCI372nisA control [5]: 105%
- zone size relative to that of the NZ9800 pCI372nisA control [6]: 135%
- zone size relative to that of the NZ9800 pCI372nisA control [7]: 132.5%
- Strain(s) against which the derivative (producing strain) displays enhanced bioactivity [8]: L. monocytogenes CBC1 and L. lactis CBCT and CBC8; also recorded: L. monocytogenes CBC1 , and L. lactis CBC7 and CBC8; also recorded: L. monocytogenes CBC1, L. lactis CBC7, CBC8, S. aureus
- Bioactivity relative to control [9]: −
- Bioactivity relative to control [10]: −
- Bioactivity relative to control [11]: +
- Bioactivity relative to control [12]: −

Substance: NisinA N20S (ITSISLCTPGCKTGALMGCSMKTATCHCSIHVSK; not fully specified; also: lantibiotic nisin: dehydrated residues and thioether rings not placed; UniProt P13068 24-57, looked up, variant N20S) [nisin A derivative, hinge substitution N20S]
- Bioactivity relative to control [1]: −
- Bioactivity relative to control [2]: −
- Bioactivity relative to control [3]: +
- Bioactivity relative to control [4]: −
- zone size relative to that of the NZ9800 pCI372nisA control [5]: 72%
- zone size relative to that of the NZ9800 pCI372nisA control [6]: 87.5%
- zone size relative to that of the NZ9800 pCI372nisA control [7]: 83.5%
- Strain(s) against which the derivative (producing strain) displays enhanced bioactivity [8]: L. monocytogenes CBC2, Staph. aureus CBC4 and C. sporogenes CBC5 and L. monocytogenes CBC2, S. aureus CBC4 and L. monocytogenes CBC2, S. aureus CBC4, C. sporogenes and CBC5
- Bioactivity relative to control [9]: +
- Bioactivity relative to control [10]: −
- Bioactivity relative to control [11]: −
- Bioactivity relative to control [12]: +

Substance: NisinA N20R (ITSISLCTPGCKTGALMGCRMKTATCHCSIHVSK; not fully specified; also: lantibiotic nisin: dehydrated residues and thioether rings not placed; UniProt P13068 24-57, looked up, variant N20R) [nisin A derivative, hinge substitution N20R]
- Bioactivity relative to control [1]: −
- Bioactivity relative to control [2]: −
- Bioactivity relative to control [3]: −
- Bioactivity relative to control [4]: −
- zone size relative to that of the NZ9800 pCI372nisA control [5]: 19%
- zone size relative to that of the NZ9800 pCI372nisA control [6]: 53.5%
- zone size relative to that of the NZ9800 pCI372nisA control [7]: 0%
- bioactivity of the producing strain, in words [8]: greatly reduced bioactivities
- Strain(s) against which the derivative (producing strain) displays enhanced bioactivity [8]: C. sporogenes CBC5
- Bioactivity relative to control [9]: −
- Bioactivity relative to control [10]: −
- Bioactivity relative to control [11]: −
- Bioactivity relative to control [12]: +

Substance: NisinA N20A
- Bioactivity relative to control [1]: −
- Bioactivity relative to control [2]: −
- Bioactivity relative to control [3]: −
- Bioactivity relative to control [4]: −
- zone size relative to that of the NZ9800 pCI372nisA control [5]: 52%
- zone size relative to that of the NZ9800 pCI372nisA control [6]: 69%
- zone size relative to that of the NZ9800 pCI372nisA control [7]: 60.5%
- Strain(s) against which the derivative (producing strain) displays enhanced bioactivity [8]: C. sporogenes CBC5
- Bioactivity relative to control [9]: −
- Bioactivity relative to control [10]: −
- Bioactivity relative to control [11]: −
- Bioactivity relative to control [12]: +

Substance: NisinA M21K (ITSISLCTPGCKTGALMGCNKKTATCHCSIHVSK; not fully specified; also: lantibiotic nisin: dehydrated residues and thioether rings not placed; UniProt P13068 24-57, looked up, variant M21K) [nisin A derivative, hinge substitution M21K]
- Bioactivity relative to control [1]: −
- Bioactivity relative to control [2]: −
- Bioactivity relative to control [3]: +
- Bioactivity relative to control [4]: −
- zone size relative to that of the NZ9800 pCI372nisA control [5]: 91%
- zone size relative to that of the NZ9800 pCI372nisA control [6]: 104%
- zone size relative to that of the NZ9800 pCI372nisA control [7]: 89%
- bioactivity of the producing strain, in words [8]: close to wild-type bioactivities
- Strain(s) against which the derivative (producing strain) displays enhanced bioactivity [8]: Staph. aureus CBC4 and C. sporogenes CBC5; also recorded: S. aureus CBC 4 and C. sporogenes CBC5; also recorded: S. aureus CBC4, C. sporogenes CBC5
- Bioactivity relative to control [9]: −
- Bioactivity relative to control [10]: −
- Bioactivity relative to control [11]: −
- Bioactivity relative to control [12]: +
